The subject of one test is cortical cell cultures. Description: In vitro assay on ischemia (cortical cell cultures, potassium cyanide and 2-deoxyglucose). To be noted: 1 h, read-out: EC50 (neuroprotective effect). Type of test: cell-based. The method, then: In Vitro Assay on Ischemia
To examine the in vitro effect of the compounds of formula I on ischemia, cortical cell cultures were treated with various compounds of formula I during an ischemic insult utilizing potassium cyanide and 2-deoxyglucose, and for one hour thereafter (for experimental details, see Vomov et al., J. Neurochem., Vol. 65, No. 4, pp. 1681-1691 (1995)).

The subject of test [1] is STZ-induced diabetic rats. Description: In vivo assay on neuropathic pain, STZ-diabetic rats (Hargreaves thermal nociception). Details: species or system Sprague-Dawley rats. Conditions: 10 mg/kg i.p. daily, FIGS. 13A and 13B. The method, then:
In Vivo Assay of NAALADase Inhibitors on Neuropathic Pain
Male Sprague-Dawley rats (200-225 g) were rendered diabetic by intravenous administration of streptozotocin (“STZ”, 70 mg/kg in phosphate buffered saline). Diabetic animals were divided into five groups: one group receiving Compound A (10 mg/kg or 1 mg/kg), Compound D (10 mg/kg or 1 mg/kg) or vehicle. Another group of animals (non-STZ treated) served as non-diabetic controls. Drug/vehicle treatment was started in diabetic animals 45 days post-STZ administration. STZ-induced diabetic rats were tested for sensitivity to a heat source as soon as blood glucose levels rose to 320 mg/dl or above (30 days post STZ). The rats were then acclimated to the Hargreaves apparatus and thermal nociception was monitored using an infrared heat source directed into the dorsal surface of the hindpaw, and the time taken for the animal to remove its paw noted to the nearest 0.1 seconds (for detailed method, see Hargreaves et al., J. Biol. Chem. (1988) 263(36):19392-7). The intensity of the beam source was adjusted such that the mean latency for control animals (non-STZ treated) was approximately 10 seconds. Each animal was tested 8 times and the mean difference score (between mean non-diabetic control latency and mean diabetic latency) are graphically presented in FIGS. 13A and 13B.

Another test has as its system STZ-diabetic rats. Description: In vivo assay on diabetic neuropathy: motor and sensory nerve conduction velocity in STZ-diabetic rats. Conditions: vs diabetic controls; for sensory nerve conduction velocity / motor nerve conduction velocity: 10 mg/kg daily; for sensory nerve conduction velocity: significant after 8 weeks (Compound A) or 12 weeks (Compound D); for motor nerve conduction velocity: significant after 12 weeks. The protocol:
In Vivo Assay of NAALADase Inhibitors on Diabetic Neuropathy
Motor and sensory nerve conduction velocity was also measured in STZ-diabetic animals after 4, 8 and 12 weeks of treatment. For detailed method, see De Koning et al., Peptides 1987 May-Jun. 1987; 8(3):415-22. Briefly, stimulating needle electrodes were inserted close to the sciatic and tibial nerves with recording electrodes being placed subcutaneously over the distal foot muscles, in anesthetized rats.

The subject of test [2] is BB/W diabetic rats. Description: Nerve conduction velocity in BB/W diabetic rats. Type of test: in vivo. Conditions: 10 mg/kg daily, vs diabetic vehicle controls, from 8 weeks to six months, FIG. 18. An excerpt:
Male BB/W rats (BRI, Mass) spontaneously develop a cell mediated autoimmune destruction of pancreatic B cells, resulting in onset of insulin-dependent (Type I) diabetes (Awata and Guberski et al., Endocrinology 1995 December; 136(12):5731-5). […] This renders them valuable for experimental trials of new compounds for future treatments of this major disorder. In the present study, Compound D and Compound A were examined for their ability to alter the progression of diabetic neuropathy. The rats received daily injection of Compound D or Compound A (10 mg/kg i.p.) or vehicle, starting at the onset of diabetes (hyperglycemia) and up to 6 months thereafter. Another group of non-diabetic rats also receiving vehicle were tested. All animals were continuously monitored for body weight, urine volume, blood sugar and glycated haemoglobin. In the first month of the study, all animals were tested for thermal nociception in a Hargreaves apparatus, weekly. After the first month this was done biweekly and then monthly. […]
Nerve conduction velocity was also measured every two weeks through the first eight weeks of treatment and every month thereafter through to the six months of treatment. […]

Test [3] has as its system BB/W diabetic rats. Description: Withdrawal latency in BB/W diabetic rats (Hargreaves). Conditions: 10 mg/kg i.p. daily, vs diabetic vehicle-treated rats, from 4 weeks through six months, FIG. 17. Type of test: in vivo. An excerpt: Male BB/W rats (BRI, Mass) spontaneously develop a cell mediated autoimmune destruction of pancreatic B cells, resulting in onset of insulin-dependent (Type I) diabetes (Awata and Guberski et al., Endocrinology 1995 December; 136(12):5731-5). […] This renders them valuable for experimental trials of new compounds for future treatments of this major disorder. In the present study, Compound D and Compound A were examined for their ability to alter the progression of diabetic neuropathy. The rats received daily injection of Compound D or Compound A (10 mg/kg i.p.) or vehicle, starting at the onset of diabetes (hyperglycemia) and up to 6 months thereafter. Another group of non-diabetic rats also receiving vehicle were tested. All animals were continuously monitored for body weight, urine volume, blood sugar and glycated haemoglobin. In the first month of the study, all animals were tested for thermal nociception in a Hargreaves apparatus, weekly. After the first month this was done biweekly and then monthly. The testing consists of directing an infrared heat source onto the dorsal surface of the rat hindpaw and noting the time taken for the animal to remove its paw (for detailed method, see Hargreaves et al., J. Biol. Chem. 1988 Dec. 25; 263(36):19392-7). Each animal was tested 8 times and the mean withdrawal latency noted.

Another test has as its system TGF-β2. Description: Effect on TGF-β2 in in vitro ischemia model. Type of test: cell-based. To be noted: ischemic cell cultures, FIG. 2. The method, then: (§1) Effect of NAALADase Inhibition on TGF-β in In Vitro Ischemia Model
(§2) A NAALADase inhibitor, Compound C, was added to ischemia cell cultures to determine its effect on TGF-β levels during stroke. The experimental data, set forth

For test [4], the system named is chronic constrictive injury-induced rats. Description: Neuropathic pain progression, CCI model (sciatic nerve ligation, Hargreaves). Type of test: in vivo. Conditions: 50 mg/kg i.p. daily starting 10 days post surgery, vs vehicle, significant from 11 days of treatment, FIG. 14. The protocol: In Vivo Assay of NAALADase Inhibitors on Neuropathic Pain Progression CCI Model
Sciatic nerve ligation, consisting of 4 ligatures tied loosely around the sciatic nerve at 1 mm intervals proximal to the nerve trifurcation, was performed on rats. […] The rats were habituated to a Hargreaves apparatus. An infrared heat source was directed onto the dorsal surface of each rat's hindpaws and the time taken for the rat to withdraw its paws was noted. The difference in scores between the latency of the response for the paw on the operated side versus the paw on the unoperated control side was determined.
Animals received Compound C (50 mg/kg i.p. daily) or vehicle, starting 10 days post surgery. […] Normal (unoperated) rats had approximately equal latencies for both paws. This effect was significant starting at 11 days of drug treatment and persisted through to the end of the study (for 21 days of daily dosing).

Test [5] concerns TGF-β1. Description: TGF-β1 levels in rats subjected to MCAO (microdialysis). To be noted: FIG. 6. Type of test: in vivo.
Test [6] concerns rats subjected to middle cerebral artery occlusion. Description: Neuroprotective effect in MCAO rats with TGF-β neutralizing antibodies. Type of test: in vivo. Conditions: FIG. 5. The text has this: The effect of TGF-β neutralizing antibodies on the neuroprotective effect of Compound C was also studied in rats following MCAO.
One of ordinary skill in the art can appreciate that the regulation of TGF-β's by NAALADase inhibitors may have implications not only in stroke, but also in other diseases, disorders and conditions including, without limitation, neurological diseases, psychiatric diseases, demyelinating diseases, prostate cancer, inflammation, and angiogenesis.

The subject of test [7] is TGF-β1. Description: Effect on TGF-β1 in in vitro ischemia model. Type of test: cell-based. To be noted: ischemic cell cultures, FIG. 1. The protocol:
as §1, §2

The test system of a further test is ischemic cell cultures. Description: Neuroprotective effect in ischemic cell cultures with neutralizing antibodies. It counts as cell-based. Conditions: in vitro ischemia model. The protocol: TGF-β neutralizing antibodies were then added to the ischemic cell cultures.

pEC50: −log10 of the molar value.

The values below come from US6852750B2, “Benzenedicarboxylic acid derivatives” (Guilford Pharmaceuticals, Inc., priority 2000, dated 2005).

For the molecule `O=C(O)c1cc(C(=O)O)cc(C(=O)NO)c1` [Compound 39, 5-[(hydroxyamino)-carbonyl]-1,3-benzenedicarboxylic acid], the negative logarithm of the EC50 (pEC50) in the test with cortical cell cultures was 6.33.
As to `O=C(O)c1ccc(OCCCSSCCCOc2ccc(C(=O)O)cc2C(=O)O)c(C(=O)O)c1` [Compound 19, 4-[3-[[3-(2,4-dicarboxyphenoxy)propyl]-dithio]propoxy]-1,3-benzenedicarboxylic acid], the negative-log EC50 (pEC50) with cortical cell cultures is 5.60.
Regarding `O=C(O)CCC(CP(=O)(O)Cc1c(F)c(F)c(F)c(F)c1F)C(=O)O` (centres unmarked) [Compound A, 2-[[(2,3,4,5,6-pentafluorobenzyl)hydroxyphosphinyl]methyl]pentanedioic acid], the “hyperalgesic response (withdrawal latency difference score)” value in test [1] is “completely reversed”. Further, in the test on STZ-diabetic rats, the “sensory nerve conduction velocity” value was “significant improvement” and the “motor nerve conduction velocity” value is given as “significant improvement”. For the same molecule, the nerve conduction velocity entry with BB/W diabetic rats [2] is “significantly less severe nerve conduction deficits”. For the same molecule, the withdrawal latency result with BB/W diabetic rats [3] was “longer withdrawal latencies”.
In the case of `O=C(O)c1ccc(CCS)c(C(=O)O)c1` [Compound 22, 4-(2-mercaptoethyl)-1,3-benzenedicarboxylic acid], in the test with cortical cell cultures, the negative logarithm of the EC50 (pEC50) was 7.22.
Still for that read-out and setting: in the case of `O=C(O)c1cc(CS)cc(C(=O)O)c1` [Compound 41, 5-mercaptomethyl-1,3-benzenedicarboxylic acid] it was 6.76.
In the case of `O=C(O)CCC(CP(=O)(O)O)C(=O)O` (centres unmarked) [Compound C, 2-(phosphonomethyl)pentanedioic acid], the TGF-β2 concentrations result with TGF-β2 was “increased concentrations”. Further, in [4], the “difference scores between the two paws (withdrawal latency)” value is recorded as “dramatically normalized”. Also, in the test on TGF-β1 [5], the “TGF-β1 levels during occlusion and reperfusion” value was “significant rise”. For the same molecule, in [6], the “neuroprotective effect in vivo with TGF-β neutralizing antibodies” value is listed as “significantly attenuated”. In addition, the TGF-β1 concentrations result in the test with TGF-β1 [7] is reported as “increased concentrations”. In the test on ischemic cell cultures (FIG. 3), the “neuroprotective effect with TGF-β neutralizing antibodies added” value is reported as “blocked”. In the test on ischemic cell cultures (FIG. 4), the “neuroprotective effect with FGF antibody added” value is on record as “did not block”.
On to `O=C(O)c1cc(OCCCS)cc(C(=O)O)c1` [Compound 36, 5-(3-mercaptopropoxy)-1,3-benzenedicarboxylic acid], for which the pEC50 in the test with cortical cell cultures was 5.91.
Turning to `O=C(O)CCC(CCS)C(=O)O` (centres unmarked) [Compound D, 2-(2-sulfanylethyl)pentanedioic acid], in test [1], the “hyperalgesic response (withdrawal latency difference score)” value is “completely reversed”. Moreover, the “motor and sensory nerve conduction velocities” value in the test with STZ-diabetic rats (1 mg/kg dose) is recorded as “increased”. Also, in the test on STZ-diabetic rats, the “sensory nerve conduction velocity” value is listed as “increased” and the “motor nerve conduction velocity” value is “increased”. Moreover, the nerve conduction velocity entry in the test with BB/W diabetic rats [2] is on record as “significantly less severe nerve conduction deficits”. For the same molecule, the withdrawal latency result in the test on BB/W diabetic rats [3] is “longer withdrawal latencies”.

One may read the pEC50 as the negative decadic logarithm of the EC50, by convention in mol/L.
